Tests used:
[1] = target: KDR (Homo sapiens, UniProt P35968); test: KDR autophosphorylation ELISA in HUVEC cells; type: cell-based; parameters: endogenous in cells; host or cells: HUVEC (Lonza #C2519A); conditions: cellular activity, VEGF165-stimulated, phospho-KDR ELISA
Method in brief: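 HUVEC, 24 h serum-free starvation; cpd 8-pt dilution, 0.3% DMSO final, 1 h; VEGF165 100 ng/mL, 5 min; cold lysis; phospho-KDR ELISA; IC50, 4PL.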

[2] = target: Met (Homo sapiens, UniProt P08581); test: Met autophosphorylation ELISA in PC-3 cells; type: cell-based; parameters: endogenous in cells; host or cells: PC-3 prostate cancer cells (ATCC #CRL-1435); conditions: cellular activity, HGF-stimulated, phospho-Met ELISA, read-out: c-Met IC50
Method in brief: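 Phospho-Met (panTyr) sandwich ELISA on lysates of PC-3 cells given 100 ng/mL HGF for 10 min after 1 h compound exposure (8-point curve, 0.3% DMSO) following 3 h serum starvation. Normalised to HGF-stimulated DMSO and reference-inhibitor wells; 4-parameter logistic IC50.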

Chain of Met (P08581 25-1390): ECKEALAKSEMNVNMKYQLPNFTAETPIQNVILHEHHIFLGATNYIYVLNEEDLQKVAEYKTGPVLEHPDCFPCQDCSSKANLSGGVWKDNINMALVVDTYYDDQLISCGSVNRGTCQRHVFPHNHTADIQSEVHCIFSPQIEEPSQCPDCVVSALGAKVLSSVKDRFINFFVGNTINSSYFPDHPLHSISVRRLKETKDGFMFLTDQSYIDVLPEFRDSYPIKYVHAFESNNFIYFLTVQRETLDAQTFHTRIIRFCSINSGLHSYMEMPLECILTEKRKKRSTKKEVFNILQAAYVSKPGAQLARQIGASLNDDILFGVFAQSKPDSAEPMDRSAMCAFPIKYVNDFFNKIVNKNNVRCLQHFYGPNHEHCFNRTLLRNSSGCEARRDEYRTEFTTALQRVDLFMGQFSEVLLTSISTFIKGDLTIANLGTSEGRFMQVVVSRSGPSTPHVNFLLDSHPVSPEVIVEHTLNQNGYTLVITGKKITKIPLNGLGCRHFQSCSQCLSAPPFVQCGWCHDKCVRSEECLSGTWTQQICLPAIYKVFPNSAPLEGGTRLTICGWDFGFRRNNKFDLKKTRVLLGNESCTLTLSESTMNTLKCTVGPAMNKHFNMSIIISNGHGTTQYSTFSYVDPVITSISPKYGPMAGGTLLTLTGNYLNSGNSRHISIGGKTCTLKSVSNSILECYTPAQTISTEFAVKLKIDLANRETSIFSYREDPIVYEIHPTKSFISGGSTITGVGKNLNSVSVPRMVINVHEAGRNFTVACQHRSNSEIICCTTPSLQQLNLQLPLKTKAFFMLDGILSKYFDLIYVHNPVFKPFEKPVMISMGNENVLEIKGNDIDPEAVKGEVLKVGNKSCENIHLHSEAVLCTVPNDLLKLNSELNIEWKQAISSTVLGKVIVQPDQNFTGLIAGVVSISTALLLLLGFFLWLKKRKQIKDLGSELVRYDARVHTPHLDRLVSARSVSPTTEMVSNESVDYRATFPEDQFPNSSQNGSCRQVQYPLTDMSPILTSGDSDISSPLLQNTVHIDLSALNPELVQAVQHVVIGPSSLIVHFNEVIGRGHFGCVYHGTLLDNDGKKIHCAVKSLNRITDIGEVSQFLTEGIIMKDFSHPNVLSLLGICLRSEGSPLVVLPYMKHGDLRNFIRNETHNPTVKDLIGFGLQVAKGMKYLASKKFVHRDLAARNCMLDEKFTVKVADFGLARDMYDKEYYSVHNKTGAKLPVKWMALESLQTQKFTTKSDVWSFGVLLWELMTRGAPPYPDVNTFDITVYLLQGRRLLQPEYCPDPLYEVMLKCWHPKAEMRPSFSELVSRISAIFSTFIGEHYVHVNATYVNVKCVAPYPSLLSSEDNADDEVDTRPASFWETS
Chain of KDR (P35968 20-1356): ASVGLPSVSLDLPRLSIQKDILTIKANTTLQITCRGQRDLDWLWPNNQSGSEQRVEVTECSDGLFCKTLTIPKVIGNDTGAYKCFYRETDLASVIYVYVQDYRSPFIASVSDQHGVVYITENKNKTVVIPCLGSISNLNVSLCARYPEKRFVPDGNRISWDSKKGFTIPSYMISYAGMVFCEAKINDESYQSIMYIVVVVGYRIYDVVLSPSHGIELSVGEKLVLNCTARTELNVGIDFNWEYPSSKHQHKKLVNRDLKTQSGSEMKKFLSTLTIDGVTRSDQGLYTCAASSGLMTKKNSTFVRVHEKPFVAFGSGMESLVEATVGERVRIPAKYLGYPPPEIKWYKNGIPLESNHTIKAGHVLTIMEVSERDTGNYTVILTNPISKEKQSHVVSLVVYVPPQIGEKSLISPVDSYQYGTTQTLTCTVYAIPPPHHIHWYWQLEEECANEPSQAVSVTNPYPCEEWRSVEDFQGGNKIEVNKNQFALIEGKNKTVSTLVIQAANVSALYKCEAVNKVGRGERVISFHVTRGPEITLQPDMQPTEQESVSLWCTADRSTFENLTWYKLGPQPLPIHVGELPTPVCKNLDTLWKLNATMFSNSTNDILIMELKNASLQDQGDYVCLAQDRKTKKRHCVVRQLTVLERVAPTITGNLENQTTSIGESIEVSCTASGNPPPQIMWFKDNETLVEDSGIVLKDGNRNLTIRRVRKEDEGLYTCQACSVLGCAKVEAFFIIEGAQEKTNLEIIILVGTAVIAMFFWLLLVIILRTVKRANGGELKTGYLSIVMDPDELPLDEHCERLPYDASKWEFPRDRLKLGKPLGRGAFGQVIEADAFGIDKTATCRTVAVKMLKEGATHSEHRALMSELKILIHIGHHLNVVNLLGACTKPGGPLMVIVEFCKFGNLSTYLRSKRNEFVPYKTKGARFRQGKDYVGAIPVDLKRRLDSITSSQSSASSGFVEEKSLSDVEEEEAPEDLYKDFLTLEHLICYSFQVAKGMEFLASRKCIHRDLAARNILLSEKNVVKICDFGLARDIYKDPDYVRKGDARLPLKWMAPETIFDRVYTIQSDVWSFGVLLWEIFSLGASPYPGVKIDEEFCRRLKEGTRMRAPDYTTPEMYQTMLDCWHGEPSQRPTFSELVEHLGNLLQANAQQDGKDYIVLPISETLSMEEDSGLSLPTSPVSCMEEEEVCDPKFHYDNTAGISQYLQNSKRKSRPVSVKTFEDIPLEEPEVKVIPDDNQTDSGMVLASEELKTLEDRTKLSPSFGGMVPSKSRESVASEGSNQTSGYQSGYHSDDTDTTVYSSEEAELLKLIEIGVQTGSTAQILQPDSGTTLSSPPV

Row | Compound | IC50 [1] | IC50 [2]
1 | Cc1cc2c(Oc3ccc(NC(=O)C4(C(=O)Nc5ccc(F)cc5)CC4)cc3)ccnc2cc1-c1cc[nH]n1 [Compound 107, 1-N′-(4-Fluorophenyl)-1-N-[4-[6-methyl-7-(1H-pyrazol-3-yl)quinolin-4-yl]oxyphenyl]cyclopropane-1,1-dicarboxamide] | 10 to 100 nM | 100 to 300 nM
2 | O=C(Nc1ccc(F)cc1)C1(C(=O)Nc2ccc(Oc3ccnc4cc(-c5ccn(CF)n5)ccc34)cc2)CC1 [Compound 102, 1-N-[4-[7-[1-(Fluoromethyl)pyrazol-3-yl]quinolin-4-yl]oxyphenyl]-1-N′-(4-fluorophenyl)cyclopropane-1,1-dicarboxamide] | ≤ 10 nM | 10 to 100 nM
3 | O=C(Nc1ccc(F)cc1)C1(C(=O)Nc2ccc(Oc3ccnc4cc(-c5cnn(CF)c5)ccc34)cc2)CC1 [Compound 94, 1-N-[4-[7-[1-(Fluoromethyl)pyrazol-4-yl]quinolin-4-yl]oxyphenyl]-1-N′-(4-fluorophenyl)cyclopropane-1,1-dicarboxamide] | ≤ 10 nM | 10 to 100 nM
4 | CC(=O)N1CCC(c2ccc3c(Oc4ccc(NC(=O)C5(C(=O)Nc6ccc(F)cc6)CC5)cc4)ccnc3c2)C1 (stereo not drawn) [Compound 92, 1-N-[4-[7-(1-Acetylpyrrolidin-3-yl)quinolin-4-yl]oxyphenyl]-1-N′-(4-fluorophenyl)cyclopropane-1,1-dicarboxamide] | 100 to 300 nM | 10 to 100 nM
5 | Cc1ccn(-c2ccc3c(Oc4ccc(NC(=O)C5(C(=O)Nc6ccc(F)cc6)CC5)cc4)ccnc3c2)n1 [Compound 91, 1-N′-(4-Fluorophenyl)-1-N-[4-[7-(3-methylpyrazol-1-yl)quinolin-4-yl]oxyphenyl]cyclopropane-1,1-dicarboxamide] | 100 to 300 nM | 10 to 100 nM
6 | O=C(Nc1ccc(F)cc1)C1(C(=O)Nc2ccc(Oc3ccnc4cc(-c5cc6ccccn6n5)ccc34)cc2)CC1 [Compound 104, 1-N′-(4-Fluorophenyl)-1-N-[4-(7-pyrazolo[1,5-a]pyridin-2-ylquinolin-4-yl)oxyphenyl]cyclopropane-1,1-dicarboxamide] | 10 to 100 nM | 100 to 300 nM
7 | Nc1cc(-c2ccc3c(Oc4ccc(NC(=O)C5(C(=O)Nc6ccc(F)cc6)CC5)cc4)ccnc3c2)ccn1 [Compound 97, 1-N-[4-[7-(2-Aminopyridin-4-yl)quinolin-4-yl]oxyphenyl]-1-N′-(4-fluorophenyl)cyclopropane-1,1-dicarboxamide] | 10 to 100 nM | 10 to 100 nM
8 | Cc1cc(-c2ccc3c(Oc4ccc(NC(=O)C5(C(=O)Nc6ccc(F)cc6)CC5)cc4)ccnc3c2)nn1C [Compound 101, 1-N-[4-[7-(1,5-Dimethylpyrazol-3-yl)quinolin-4-yl]oxyphenyl]-1-N′-(4-fluorophenyl)cyclopropane-1,1-dicarboxamide] | 10 to 100 nM | 10 to 100 nM
9 | Cc1cc2c(Oc3cc(F)c(NC(=O)C4(C(=O)Nc5ccc(F)cc5)CC4)cc3F)ccnc2cc1-c1cnn(C)c1 [Compound 105, 1-N′-[2,5-Difluoro-4-[6-methyl-7-(1-methylpyrazol-4-yl)quinolin-4-yl]oxyphenyl]-1-N-(4-fluorophenyl)cyclopropane-1,1-dicarboxamide] | 10 to 100 nM | 10 to 100 nM
10 | Cc1cc(-c2ccc3c(Oc4ccc(NC(=O)C5(C(=O)Nc6ccc(F)cc6)CC5)cc4)ccnc3c2)n[nH]1 [Compound 99, 1-N′-(4-Fluorophenyl)-1-N-[4-[7-(5-methyl-1H-pyrazol-3-yl)quinolin-4-yl]oxyphenyl]cyclopropane-1,1-dicarboxamide] | ≤ 10 nM | 10 to 100 nM
11 | Nc1n[nH]cc1-c1ccc2c(Oc3ccc(NC(=O)C4(C(=O)Nc5ccc(F)cc5)CC4)cc3)ccnc2c1 [Compound 90, 1-N-[4-[7-(3-Amino-1H-pyrazol-4-yl)quinolin-4-yl]oxyphenyl]-1-N′-(4-fluorophenyl)cyclopropane-1,1-dicarboxamide] | 10 to 100 nM | 10 to 100 nM
12 | Cc1cn(-c2ccc3c(Oc4ccc(NC(=O)C5(C(=O)Nc6ccc(F)cc6)CC5)cc4)ccnc3c2)cn1 [Compound 87, 1-N′-(4-Fluorophenyl)-1-N-[4-[7-(4-methylimidazol-1-yl)quinolin-4-yl]oxyphenyl]cyclopropane-1,1-dicarboxamide] | ≤ 10 nM | 10 to 100 nM
13 | O=C(Nc1ccc(F)cc1)C1(C(=O)Nc2ccc(Oc3ccnc4cc(-c5ccn(C6CC6)n5)ccc34)cc2)CC1 [Compound 98, 1-N-[4-[7-(1-Cyclopropylpyrazol-3-yl)quinolin-4-yl]oxyphenyl]-1-N′-(4-fluorophenyl)cyclopropane-1,1-dicarboxamide] | 10 to 100 nM | 10 to 100 nM
14 | CS(=O)(=O)N1CCC(c2ccc3c(Oc4ccc(NC(=O)C5(C(=O)Nc6ccc(F)cc6)CC5)cc4)ccnc3c2)C1 (stereo not drawn) [Compound 93, 1-N′-(4-Fluorophenyl)-1-N-[4-[7-(1-methylsulfonylpyrrolidin-3-yl)quinolin-4-yl]oxyphenyl]cyclopropane-1,1-dicarboxamide] | > 300 nM | 10 to 100 nM
15 | O=C(Nc1ccc(F)cc1)C1(C(=O)Nc2ccc(Oc3ccnc4cc(C5=CCOC5)ccc34)cc2)CC1 [Compound 95, 1-N-[4-[7-(2,5-Dihydrofuran-3-yl)quinolin-4-yl]oxyphenyl]-1-N′-(4-fluorophenyl)cyclopropane-1,1-dicarboxamide] | ≤ 10 nM | 10 to 100 nM
16 | Cc1cnn(-c2ccc3c(Oc4ccc(NC(=O)C5(C(=O)Nc6ccc(F)cc6)CC5)cc4)ccnc3c2)c1 [Compound 96, 1-N′-(4-Fluorophenyl)-1-N-[4-[7-(4-methylpyrazol-1-yl)quinolin-4-yl]oxyphenyl]cyclopropane-1,1-dicarboxamide] | 10 to 100 nM | 10 to 100 nM
17 | O=C(Nc1ccc(F)cc1)C1(C(=O)Nc2ccc(Oc3ccnc4cc(-c5ccccc5)ccc34)cc2)CC1 [Compound 55, 1-N′-(4-Fluorophenyl)-1-N-[4-(7-phenylquinolin-4-yl)oxyphenyl]cyclopropane-1,1-dicarboxamide] | 10 to 100 nM | 100 to 300 nM
18 | Cc1cc2c(Oc3ccc(NC(=O)C4(C(=O)Nc5ccc(F)cc5)CC4)cc3)ccnc2cc1-c1ccn(C)n1 [Compound 108, 1-N′-(4-Fluorophenyl)-1-N-[4-[6-methyl-7-(1-methylpyrazol-3-yl)quinolin-4-yl]oxyphenyl]cyclopropane-1,1-dicarboxamide] | 10 to 100 nM | 100 to 300 nM

Source: patent publication US12503438B2, “Compounds for the treatment of kinase-dependent disorders” (Exelixis, Inc., priority 2019, dated 2025)
